Like-named read-outs stand apart in the source and are kept apart here.
Key:
Format in all cases: cell-based
P. falciparum = test: antimalarial cytotoxicity assay ([3H]hypoxanthine), malaria-infected RBC; settings: Plasmodium falciparum
Method: FIG. 2 is set of graphs showing the percentage of P. falciparum killed by MACs of the present invention as a function of drug concentration. Malaria-infected RBC were incubated with DP-b99 (A and B).
FIG. 3 is a graph showing the percentage of P. falciparum killed by MACs of the present invention as a function of drug concentration.
Malaria. Because of the importance of calcium signaling in mammalian cells and recent findings that interference with host cell signaling pathways to subvert the host intracellular milieu may be an important mechanism for the malaria parasite's survival, it was thought that MACs might be toxic to malarial parasite within host cells (i.e. RBCs, hepatocytes). It was investigated whether MAC compounds of the present invention would be able to kill intracellular malaria parasites. An established antimalarial cytotoxicity assay developed in Dr. Theresa Shapiro's laboratory (JHU) (Tetrahedron, 1997; 53(1):37-50) was used with the following modifications: (1) Parasitemia was maintained at 0.1% to 5% by thrice weekly change of medium and replenishment of human erythrocytes; (2) [^3H]hypoxanthine (10-30 Ci/mmol, 1.0 mCi/mL was used in aqueous solution, (Perkin-Elmer NET177001MC), diluted to 25 μCi/mL with medium; and as for the trypanosome experiments (3) the cytotoxicity assays for two MAC compounds of the present invention, DP-b99 and DP-460 (DPharm, Ltd., Rehovot Ill.), included 10 concentrations based on stock solutions (50.0 mg/mL) of each compound that were prepared in sterile HPLC-grade water.

[1] = system: T. b. brucei 427 or T. b. rhodesiense IL1852; test: trypanosome cytotoxicity assay in vitro; settings: Trypanosoma brucei, by 24 hours, BSF trypanosomes, read-out: effective concentration of drug to kill 50% (EC50) of the parasites
Method: (§1) FIG. 1 illustrates the effect of MACs of the present invention on human brain microvascular endothelial cell (BMEC) monolayers interaction with trypanosomes. (A) Human BMEC pretreated with 20 μM DP-b99 impeded parasite transmigration across this barrier (t-5 hours, n=3). […] The data are represented as average TEER or migration±S.E. (n=4; p<0.05). (B) BSF trypanosomes were incubated with DP-b99 or DP460. The average percent (n=4) of parasites killed after 24 hours is plotted against drug concentration.
(§2) African Trypanosomes: The MAC compound of the present invention, DP-b99, as a chelator of Ca^2+ and Zn^2+ was tested to determine whether it would tighten the BBB to trypanosome traversal based on the concepts described above. In pilot parasite/BBB transmigration experiments, bloodstream form Trypanosoma brucei rhodesiense (Tbr) IL1852 were incubated in Transwell inserts containing human brain microvascular endothelial cell (BMEC) monolayers pretreated for 60 minutes with DP-b99, then washed free of drug. In a parallel experiment, human BMEC grown on gold-coated electrode ECIS arrays, were similarly treated with the MAC compound. When compared to the untreated control group, T. b. rhodesiense transmigration across a human BMEC barrier was impeded 60% after 5 hours incubation (FIG. 1A). […]

[2] = system: human brain microvascular endothelial cell (BMEC) monolayers; test: ECIS transendothelial electrical resistance (TEER) of human BMEC during infection; settings: BMEC pretreated with 20 μM DP-b99
Method: as §1, §2

[3] = system: bloodstream form Trypanosoma brucei rhodesiense (Tbr) IL1852 transmigration across human BMEC barrier; test: parasite/BBB transmigration across human BMEC monolayers in Transwell inserts; settings: BMEC pretreated 60 minutes with 20 μM DP-b99, washed free of drug; after 5 hours incubation
Method: as §1, §2

[4] = pilot experiments, read-out: concentration range found to kill P. falciparum

SMILES	EC50 (P. falciparum; R^2=0.995 (FIG. 3), read-out: EC50, P. falciparum killed) [µM]	EC50 (P. falciparum; [4]) [µM]	EC50 [1] [µM]	barrier tightness of human BMEC during the infection (ECIS TEER) [2]	T. b. rhodesiense transmigration across a human BMEC barrier impeded, compared to untreated control [3] [%]
CCCCCCCCCCCCOCCOC(=O)CN(CC(=O)O)c1ccccc1OCCOc1ccccc1N(CC(=O)O)CC(=O)OCCOCCCCCCCCCCCC [DP-460]	28	21 to 28	~39		
CCCCCCCCOCCOC(=O)CN(CC(=O)O)c1ccccc1OCCOc1ccccc1N(CC(=O)O)CC(=O)OCCOCCCCCCCC [DP-b99]		21 to 28	~87	maintained a tighter barrier	60

— US9415032B2, “Membrane activated chelators and use in the prevention and treatment of parasitic infection” (THE JOHNS HOPKINS UNIVERSITY, priority 2011, dated 2016)
